Results on three molecules are retold here after US20250255815A1, “NUCLEIC ACIDS ENCODING A CONSTITUTIVELY-ACTIVE CYCLIC GMP-AMP SYNTHASE AND IMMUNOGENIC DELIVERY VEHICLES FOR SAME” (Corner Therapeutics, Inc., priority 2022, published 2025).

For one experiment, the system named is canine PBMCs. The experiment is described as follows: IL-1β secretion by canine PBMCs (ELISA). Format: cell-based. Particulars: two days in culture, R848 1 μg/mL, 22:0 LYSO PC 82.5 μM. The protocol: (§1) Isolation of PBMCs from Whole Blood. PBMCs were isolated from whole blood using density gradient centrifugation with Ficoll-Paque PLUS (Cytivia). Whole blood was diluted 1:1 with PBS, layered on top of Ficoll-Paque PLUS and centrifuged at 1000×g for 30 minutes at room temperature. PBMCs were collected, washed twice in PBS, and incubated with Ack lysis buffer (Lonza) to remove any remaining red blood cells.
(§2) Cell Culture and Stimulation. Immediately following isolation, PBMCs were plated in RPMI medium containing 10% FBS, 50 units/mL penicillin, […] streptomycin, 2 mM L-glutamine, 1 mM sodium pyruvate, and […] beta-mercaptoethanol (R10 media). […]
(§3) Endpoint Analyses. […] Half of the media volume in the wells was collected for cytokine quantification by Enzyme-Linked Immunosorbent Assay (ELISA) or Lumit™ Bioluminescent assay, while the remaining media and cells were used to quantify cell viability by assessing metabolic activity.
(§4) Quantification of Cytokine Secretion. IL-1β secretion from human PBMCs was assessed using one of the following kits: ELISA MAX Deluxe Set Human IL-1β kit (Biolegend), Invitrogen Human IL-1β kit, or the Lumit™ Human IL-1β Immunoassay (Promega). IFNγ secretion from human PBMCs was assessed using the ELISA MAX Deluxe Set Human IFNγ (Biolegend) and TNFα secretion from human PBMCs was assessed using the Human TNFα Uncoated ELISA kit (Invitrogen). […]
(In general: An ELISA detects its analyte on a solid surface through an enzyme-linked reagent.)

Experiment [1] deals with human PBMCs. The experiment is described as follows: IFNγ and TNFα secretion by human PBMCs (ELISA). Format: cell-based. The following applies: two days post-hyperactivation. The protocol: Cell Culture and Stimulation. Immediately following isolation, PBMCs were plated in RPMI medium containing 10% FBS, 50 units/mL penicillin, […] streptomycin, 2 mM L-glutamine, 1 mM sodium pyruvate, and […] beta-mercaptoethanol (R10 media). Cells were plated at 1×10^5 (canine cells) or 1×10^6 (human cells) per well in 96-well flat bottom tissue culture plates. Lyophilized Vaccigrade R848 (Invivogen) was reconstituted and diluted according to manufacturer's recommendations and added to cells at a final concentration of 1 μg/mL. Immediately following, 22:0 LYSO PC was added to cells at a final concentration of 82.5 μM. […]
as §3, §4

Experiment [2] deals with human PBMCs. The experiment is described as follows: IL-1β secretion by human PBMCs (ELISA or Lumit). Type of experiment: cell-based. The following applies: two days in culture. On the procedure: as §1, §2, §3, §4
Experiment [3] has as its system human leukemia monocytic cell line. Particulars: cited from earlier work.

As to `Nc1nc2c(ncn2[C@@H]2O[C@@H]3COP(=O)(O)O[C@H]4[C@@H](O)[C@H](n5cnc6c(N)ncnc65)O[C@@H]4COP(=O)(O)O[C@@H]2[C@@H]3O)c(=O)[nH]1` [2′3′cGAMP, 2′3′cyclic GMP-AMP, reference compound], in the experiment on canine PBMCs, the IL-1β secretion entry is “neither GM-CSF nor 2′3′cGAMP induced significant IL-1β secretion”. Further, the “IFNγ secretion, fold change per donor relative to R848 alone” value in the experiment on human PBMCs [1] was “neither GM-CSF nor 2′3′cGAMP elicited a substantial fold change in IFNγ secretion over R848 alone”.

As for “GM-CSF: human GM-CSF (Peprotech), innate agonist”, the values for the IL-1β secretion entry with canine PBMCs and in the experiment on human PBMCs [2] were “neither GM-CSF nor 2′3′cGAMP induced significant IL-1β secretion” and “did not induce levels of IL-1β secretion from human PBMCs significantly above background levels”, respectively. Also, the “IFNγ secretion, fold change per donor relative to R848 alone” value in the experiment with human PBMCs [1] is “neither GM-CSF nor 2′3′cGAMP elicited a substantial fold change in IFNγ secretion over R848 alone”.

B1: cGASΔN: constitutively-active truncated human cGAS, C-terminal domain (SEQ ID NO:1) (protein, listed as Homo sapiens)
chain: PGASKLRAVLEKLKLSRDDISTAAGMVKGVVDHLLLRLKCDSAFRGVGLLNTGSYYEHVKISAPNEFDVMFKLEVPRIQLEEYSNTRAYYFVKFKRNPKENPLSQFLEGEILSASKMLSKFRKIIKEEINDIKDTDVIMKRKRGGSPAVTLLISEKISVDITLALESKSSWPASTQEGLRIQNWLSAKVRKQLRLKPFYLVPKHAKEGNGFQEETWRLSFSHIEKEILNNHGKSKTCCENKEEKCCRKDCLKLMKYLLEQLKERFKDKKHLDKFSSYHVKTAFFHVCTQNPQDSQWDRKDLGLCFDNCVTYFLQCLRTEKLENYFIPEFNLFSSNLIDKRSKEFLTKQIEYERNNEFPVFDEF
For the molecule B1, the “expression of interferon and interferon-stimulated genes” value in experiment [3] was “higher levels of expression of interferon and interferon-stimulated genes”.
